Laboratory results as given in PubChem BioAssay (NCI).
Values joined by “and” are separate entries in the source; they are usually repeats but may differ in a detail not shown here. Equal values may be shown once.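 Values below derive from 48-hour exposures of cells grown in 96-well plates, with endpoints linearly interpolated between the two concentrations bracketing the appropriate inhibition level. The concentration for 50% growth inhibition is given as GI50. The concentration for full growth arrest is given as TGI.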

Tests used:
Assay in all cases: DTP human tumour cell line panel, 48 h
A498 renal = test system: A498 renal
ACHN renal = test system: ACHN renal
DU-145 prostate = test system: DU-145 prostate
LOX IMVI melanoma = test system: LOX IMVI melanoma
NCI-H522 lung = test system: NCI-H522 lung
OVCAR-4 ovarian = test system: OVCAR-4 ovarian
SK-MEL-2 melanoma = test system: SK-MEL-2 melanoma
SK-MEL-28 melanoma = test system: SK-MEL-28 melanoma
SK-OV-3 ovarian = test system: SK-OV-3 ovarian
SN12C renal = test system: SN12C renal

SMILES | GI50 (A498 renal) | TGI (A498 renal) | GI50 (ACHN renal) | TGI (ACHN renal) | GI50 (DU-145 prostate) | TGI (DU-145 prostate) | GI50 (LOX IMVI melanoma) | TGI (LOX IMVI melanoma) | GI50 (NCI-H522 lung) | TGI (NCI-H522 lung) | GI50 (OVCAR-4 ovarian) | TGI (OVCAR-4 ovarian) | GI50 (SK-MEL-2 melanoma) | TGI (SK-MEL-2 melanoma) | GI50 (SK-MEL-28 melanoma) | TGI (SK-MEL-28 melanoma) | GI50 (SK-OV-3 ovarian) | TGI (SK-OV-3 ovarian) | GI50 (SN12C renal) | TGI (SN12C renal)
Fc1ccc(Nc2cc(-n3nnc4ccccc43)nc3ccccc23)cc1 | 56.4 µM | > 100 µM | > 62.6 µM | > 100 µM | > 56.2 µM | > 100 µM | 37.7 µM | > 100 µM | 66.3 µM | > 100 µM | 22.4 µM | > 80.4 µM | 98.8 µM | > 100 µM | > 56.2 µM | > 100 µM | 8.41 µM | > 100 µM | 30 µM | > 69.3 µM
COc1ccc(CNc2c3ccccc3nc3ccccc23)cc1OC | 1.97 µM | 4.8 µM | 1.39 µM | 7.94 µM | 2.8 µM | 8.43 µM | 1.4 µM | 3.47 µM | 1.55 µM | 4.15 µM | 2.39 µM | 7.99 µM | 2.28 µM | 6.4 µM | 3.14 µM | 10.8 µM | 2.44 µM | 8.33 µM | 2.36 µM | 8.54 µM
O=C(Nc1cccc(Cl)c1)c1cc2ccccc2cc1O | 0.742 µM and 1.08 µM | 4.34 µM and 4.64 µM | 2.55 µM and 0.609 µM | > 100 µM | 3.07 µM and 2.38 µM | > 100 µM | 3.73 µM and 1.75 µM | > 100 µM | 1.03 µM and 0.583 µM | 7.09 µM and 7.92 µM | 3.39 µM and 2.32 µM | > 100 µM | 0.415 µM and 2.94 µM | 4.63 µM and 40.8 µM | 2.69 µM and 0.554 µM | > 100 µM | 1.23 µM | 4.95 µM | 2.05 µM and 1.76 µM | > 100 µM
COc1ccc(/C=c2/sc3n(c2=O)C(c2ccc(OC)c(OC)c2)C2=C(N=3)c3cc(F)ccc3OC2)cc1 (stereo not given) | 45.6 µM | > 80.9 µM | 19.3 µM | 65.7 µM | 43.3 µM | > 100 µM | 23 µM | 50.7 µM | 51.8 µM | > 100 µM | > 23.2 µM | > 74.1 µM | > 45.2 µM | > 92.4 µM | 51.5 µM | > 96.6 µM | > 57 µM | > 100 µM | 3.45 µM | > 54.9 µM
COc1ccccc1/C=C/c1cnccn1 | – | > 10 µM | – | > 10 µM | – | > 10 µM | – | > 10 µM | – | > 10 µM | – | > 10 µM | – | > 10 µM | – | > 10 µM | – | > 10 µM | – | > 10 µM
Cc1sc2nc(NCCc3c[nH]c4ccc(Cl)cc34)[nH]c(=O)c2c1C | 1.8 µM | 4.15 µM | 1.93 µM | 4.47 µM | 3.59 µM | 13 µM | 1.87 µM | 3.68 µM | 1.79 µM | 3.91 µM | 3.27 µM | 13.4 µM | 2.62 µM | 9.29 µM | 4.08 µM | 15.7 µM | 3.22 µM | 14.5 µM | 2.38 µM | 6.59 µM
CCCS(=O)(=O)Nc1ccc(Nc2c3ccccc3nc3ccccc23)c(OC)c1 | – | 6 µM | – | 4.02 µM | – | 4.54 µM | – | 4.9 µM | – | 5.33 µM | – | 32.4 µM | – | 7.7 µM | – | 1.3 µM | – | 16.4 µM | – | 3.18 µM
O=C(O)c1ccccc1-c1ccccc1C(=O)Nc1ccc2c(c1)Cc1cc(F)ccc1-2 | – | 46 µM | – | 64.2 µM | – | > 100 µM | – | 77.7 µM | – | 63 µM | – | > 100 µM | – | 37.9 µM | – | > 100 µM | – | > 100 µM | – | 45.5 µM
COc1ccc(-n2cc(-c3ccc(Cl)c(Cl)c3)nc2SCc2cccc(C#N)c2)cc1 | 12.6 µM | 44.5 µM | 30.4 µM | > 100 µM | > 100 µM | > 100 µM | 13.9 µM | > 100 µM | 13.6 µM | > 100 µM | 11.9 µM | > 100 µM | > 100 µM | > 100 µM | 20.2 µM | > 100 µM | 26.2 µM | > 100 µM | 14 µM | 35.7 µM
